Data from patent US10213425B2, “Role of N-2-hydroxy-ethyl-piperazine-N′-2-ethane sulfonic acid (HEPES) in pain control and reversal of demyelinization injury” (Bespoke Bioscience, LLC, priority 2009, dated 2019).

Legend:
[1] = General clinical administration of HEPES: effective dosage and tolerability; format: in vivo, human
Protocol: The product, HEPES, is produced in ultra-pure form and is available from GIBCOL Technologies, Inc. The product is administered on a body weight basis with the determined minimal effective daily dosage of 70-75 mg/kg. The material may be safely given either by oral or parenteral routes. […] The administered product is prepared by a compounding pharmacist, with the dosage of each patient recipient being individualized.

[2] = system: cell cultures of both animal and human origin; details: studies not specified; cited from earlier work
[3] = system: Chronic Inflammatory Demyelinating Polyradiculoneuropathy (CIDP); test: Clinical case, Chronic Inflammatory Demyelinating Polyradiculoneuropathy (Example 9); format: in vivo, human; details: daily oral product, after three weeks
From the text: patient three is a person who presents with a history of multiple allergies, infections (including viral meningitis/aseptic encephalitis), multiple episodes of antibiotic treatments, etc. They describe their physical status historically as follows: “I have been seriously ill since 1991 with progressive neurologic deficits, which culminated with significant loss of motor control in 1993. The condition was misdiagnosed as Multiple Sclerosis with negative findings on Mill.” They initially ambulated slowly with the use of a cane. In 1994 they were paralyzed from the neck down. They were treated with Ig intravenously and recovered over a period of weeks. Five months later, they experienced a similar episode. This time the Ig therapy was only weakly helpful, and they as treated with therapeutic plasma exchanges every two weeks. They have recently been experiencing significant pains in their extremities and HEPES was started orally both for pain control and possible reinforcement of any myelinating defects, as our medical colleagues in the Netherlands have had significant success in reversing the demyelination process.

Parkinson's Disease = test: Clinical cases, Parkinson's Disease patients (Examples 4 and 5); format: in vivo, human
From the text: […] The family history is positive. They have been tried on a variety of Parkinsonian medications, the beneficial actions of which seem to disappear within a few months.
The hand tremor was present only to a small degree, but the head tremors and tics were very prominent to the degree that […] would become nauseated if […] kept […] vision pinpointed.
patient one is a person who has had Parkinsonian symptoms since they were […]. They were placed on levo-dopa with gradual increases to six per day along with large doses of Mirapex and polyethylene glycol for their problem with constipation. Their constipation was really quite intractable with abdominal distention and protrusion, nausea and vomiting. Also very worrisome was their diminished deglutitionary activity and tongue biting with oral bleeding. They were unable to stand without assistance and their hesitant walk favored the festinative aspects. […] Over time the daily dosage of levodopa was reduced from the prescribed 6 per day to 2 per day to which a small dose of the dopamine agonist, bromocriptine, was added with singularly beneficial results. Their condition improved to the extent that they were again able to drive themself to the store, buy gasoline, and eat out. Most, most gratifying, indeed!
They were placed on an active bowel treatment program with good results which, when required was supplemented with an enema q.o.d. They continued to be monitored closely.

[4] = system: Post Chemotherapy Cognitive Impairment (PCCI); test: Clinical case, post chemotherapy cognitive impairment (Example 3); format: in vivo, human; details: PCCI patient, oral 5,000 mg daily in divided doses, after a month
From the text: patient two is a person who, prior to their diagnosis of breast cancer, has been in charge of the family business involving a host of necessary transactions, including maintenance of financial records and tax liabilities. Post chemotherapy they had profound difficulty remembering what day it was, what time it was, had they taken their morning bath, what to cook for any meal, forgetfulness as to daily chores, transporting their children to school-sponsored events, suddenly breaking telephone conversations with their concerned parent without any recall of the action. The major deficit business-wise was the inability to perform simple mathematical calculations. […] They thought they “was going bonkers!” Their parent inquired as to what could be done to alleviate the rapidly deteriorating family problems. A trial on HEPES was recommended as the symptoms were, at least in part, related to demyelination. They were started on oral HEPES, 5,000 mg daily in divided doses. […] They continue to show improvement in a gratifying manner.

[5] = system: Benzodiazepine Withdrawal Symptoms; test: Clinical case, benzodiazepine withdrawal symptoms (Example 8); format: in vivo, human
From the text: patient five is a person, who was initially placed on benzodiazepine medication for panic attacks which presented. They have been on various forms of medications constituting this group for more than three decades. The dilemma which exists is that often the original condition for which the diazepines are prescribed are considered to be psychiatric in nature. When pain and neurological symptoms appear associated with withdrawal, it is often misdiagnosed with additional medications given which compounds the problem. These medications are recommended for short term treatment (4-6 weeks) only, but as with this patient, usage extends over years. One of the major withdrawal symptoms include violent repetitive “tics” which are considerably worsened with emotional situations and other stressors. Abnormal ideation often takes the form of bizarre thoughts as the functioning of the superego is marked impaired. Thus, these patients do things which under normal conditions would never contemplate, much less act out. As a result of these factors, our patient lost their successful business, their houses, and their family comprised of their spouse and three beautiful daughters. They walk with a hopping motion associated with bizarre flailing movements of the shoulder and arms. On the internet are listings of more than 300 withdrawal symptoms. The present inventors were consulted on this patient to see if we could ameliorate their extreme pain problems. Their neurologic examination was truly strange. […] They were started on HEPES by the oral route. […] They will be closely monitored as to their condition with additional treatment.

Cerebral Palsy = test: Clinical case, cerebral palsy patient (Example 2); format: in vivo, human; details: oral 5,000 mg daily
From the text: patient five is a child of extraction, whose birthing was extremely difficult, and very probably associated with some degree of neonatal asphyxia, although this was not seriously reflected in the Apgar Score. The person has had superb medical care all their life long with loving and supportive parents able to provide recommended therapies.
Despite the abundance of treatment programs, it required nearly five years for […] to walk slowly in an unassisted manner. Amazingly, their speech pattern and intellectual capabilities were remarkably functional. A major problem was their significant dysfunction with motor skills in their hands. M.S. was given an oral dosage of HEPES of 5,000 mg daily (2 tsps with breakfast, 1 tsp mid-afternoon, and 2 tsps at bedtime). […] After 8 months of therapy, their walking and manual skills have improved to 85% of normal. They became devoted to spending several hours daily on the computer and the amount of knowledge they have acquired and retained is, indeed, phenomenal. The change in this young person has been outstanding and truly gratifying to their parents, their siblings, and especially their physicians.

Cancer of the Pancreas = test: Clinical case, cancer of the pancreas with metastases: analgesic and anti-tumor activity (Example 6); format: in vivo, human
Protocol: The pain was not relieved by passing bowel movements or any other maneuver. They were seen by their personal physician, who diagnosed Type II diabetes mellitus. They were placed on anti-diabetic medication and diet. No additional studies related to the abdominal pain were carried out, even though they were peculiar in a patient with diabetes. Their diabetic state was under satisfactory control with a few weeks, but the abdominal pain problem persisted.
The abdominal pains increased in intensity with new severe pains in the mid-dorsal thoracic spine. […] They underwent radiation treatments for the thoracic lesions which eased, to a limited extent, the pain in this area.
In consultation with the patient ombudsmen group at M. D. Anderson Hospital in Houston, Tex., the family was told that none of the current study protocols were appropriate for their current condition of cancer of the pancreas with wide-spread metastases and such advanced disease. They were given 2-4 months to live. It was recommended that they be treated with pain protocols by the local institutions in the Dallas-Fort Worth area. They were treated by their personal physician who placed them on opiate analgesics for pain control.
In February, 2006, their personal physician contacted the present inventors concerning the possible addition of HEPES as they were receiving the maximal level of opiate medication, which was not controlling the pain the patient was experiencing. In March, 2006, they were placed on a daily dosage of the product administered by intravenous infusion, while continuing their maximum opiate analgesic medication.
In July, 2006, they developed significant anorexia, probably secondary to the increasing levels of endogenous TNF-alpha (cachectic factor). Dronabinol was recommended, but refused by the patient owing to the medication being derived from marijuana. Thereafter, natural source inhibitors of cachectic factor (Table 2) were recommended, but the patient refused to take any of these as they felt these might interfere with the pain control, which was acceptable. They were then offered parenteral nutritional support, which they declined.
From mid-November, 2006, […] developed weakness associated with continued weight loss, and from late November became bed-ridden. […] 2006. While the death certificate lists the cause of death as cancer of the pancreas, in truth the cause of death was terminal anorexia, inanition, and malnutrition, with more than 65 pound weigh loss.

[6] = system: Pediatric Autoimmune Neurological Disease Associated with Strep (PANDAS); test: Clinical case, Pediatric Autoimmune Neurological Disease Associated with Strep (PANDAS) (Example 7); format: in vivo, human; details: for frequency of athetotic movements: intravenous
Multiple Sclerosis = test: Clinical case, Multiple Sclerosis patient (Example 1); format: in vivo, human; details: MS patient
From the text: patient four is a public elementary school teacher, who was diagnosed with MS when they were […].
Mentally, they often experienced periods of lack of concentration and follow-through of immediate projects, generalized muscular stiffness and lack of fine motor coordination with episodes of lurching gait and imbalance. Very bothersome was their manual discoordination which adversely influenced their writing on the chalk board. Indeed, the symptoms were so frequent that their teaching contract was not renewed. They subsequently obtained employment at an academically excellent small Episcopal school where the classes were small and the stress level was considerably less compared with the public school system.
Despite these changes of venue, they had more frequent exacerbations and remissions and experienced multiple medication programs with their very concerned neurologist physician. They continued to use block letters on the blackboard rather than cursive black-board writing as a form of communicating with their students.
After a particularly severe episode of problems, they completely lost the ability to write (e.g., writing a payment check) owing to the loss of manual sensory function and erratic motor movements. The present inventors were asked to see them by the school administrator, who served as their friend and confidant. […]

[7] = Example 5 patient, 6,000 mg daily, continued treatment
[8] = continued daily product at 75 mg/kg

Question: For `O=S(=O)(O)CCN1CCN(CCO)CC1` [HEPES, N-2-hydroxyethylpiperazine-N′-2-ethanesulfonic acid], which “minimal effective daily dosage” value ([1]; administered on a body weight basis) is on record?
Answer: 70 to 75 mg/kg

Question: And the side-effects ([1]; general statement on the HEPES product)?
Answer: no side-effects

Question: What about the side-effects ([1]; oral and parenteral routes) of the same molecule?
Answer: without any significant side-effects

Question: And the “cytotoxicity compared with other buffers” value [2]?
Answer: least cytotoxicity of all the known buffers

Question: And the pain in extremities [3]?
Answer: completely controlled

Question: And the “weakness in lower extremities” value [3]?
Answer: almost completely resolved

Question: What about the “muscular fatigue, stiffness, and tics” value (Parkinson's Disease; Example 4 patient, 5,000 mg daily in divided doses, within a three-week period) of the same molecule?
Answer: all disappeared

Question: What about the patient-reported overall condition (Parkinson's Disease; Example 4 patient, 5,000 mg daily, after another couple of weeks) of the same molecule?
Answer: felt like they were before the diagnosis was made

Question: What about the “daily dosage of levodopa needed” value (Parkinson's Disease; Example 5 patient, 6,000 mg HEPES daily, over time, reduced from the prescribed 6 per day, bromocriptine added) of the same molecule?
Answer: 2 per day

Question: What about the “swallowing difficulties and tongue biting” value (Parkinson's Disease; Example 5 patient, 6,000 mg daily in divided doses, within three days) of the same molecule?
Answer: obviated their swallowing difficulties and abrogated their tongue biting

Question: What about the energy level (Parkinson's Disease; [7]) of the same molecule?
Answer: improved significantly

Question: What about the facial mask (Parkinson's Disease; [7]) of the same molecule?
Answer: completely disappeared

Question: And the “brain fog ("cloud")” value [4]?
Answer: the “cloud” was gone

Question: And the athetoid movements [5, 8]?
Answer: significant reduction in their athetoid movements

Question: And the gait [5, 8]?
Answer: improved gait

Question: And the ideation [5, 8]?
Answer: more cogent ideation

Question: And the “pain (jaws and teeth, shoulder joints and muscles, precordial chest, temples)” value [5, 8]?
Answer: significant relief of their pain

Question: And the “dorsiflexion of left foot on neurologic examination” value ([5]; oral route, after four days on the product)?
Answer: normal dorsiflexion of their left foot

Question: And the “walking and manual skills” value (Cerebral Palsy; after 8 months of therapy)?
Answer: 85 % of normal

Question: What about the “movement and control of hands and fingers” value (Cerebral Palsy; after three weeks) of the same molecule?
Answer: improved to the point where they could selectively (upon oral command) depress the correct key on the computer

Question: What about the walking pattern (Cerebral Palsy; after three weeks) of the same molecule?
Answer: considerable improvement with significant reduction in ataxic characteristics

Question: And the opiate side-effects (Cancer of the Pancreas; HEPES administration with reduced opiate narcotic analgesia)?
Answer: elimination of opiate side-effects

Question: What about the “opiate analgesic dosage giving good pain control” value (Cancer of the Pancreas; daily intravenous HEPES, narcotic medication slowly reduced over three months) of the same molecule?
Answer: about 25 % of the maximum dosage of the opiate analgesics

Question: And the pain (Cancer of the Pancreas; daily intravenous infusion added to maximum opiate analgesic medication, after 5 days)?
Answer: completely controlled

Question: And the anti-tumor effect (Cancer of the Pancreas; pancreatic cancer with wide-spread metastases, several additional months of quality living)?
Answer: a significant anti-tumor effect

Question: What about the “frequency of athetotic movements” value ([6]; 70-75 mg/kg level achieved, end of the first week, 1,300-1,500 per day before) of the same molecule?
Answer: 10-15 per day

Question: What about the “frequency of athetotic movements” value ([6]; end of the second week) of the same molecule?
Answer: 2-3 movements per day

Question: And the involuntary athetoid movements ([6]; oral medication at the same daily dosage, during the next three weeks, triggered by emotional or stressful circumstances)?
Answer: infrequent involuntary athetoid movements

Question: And the “tics after product withdrawn” value ([6]; product decreased gradually, no product being given)?
Answer: tic-free

Question: What about the “motor function and exacerbations on continued medication” value (Multiple Sclerosis; continued on the oral medication) of the same molecule?
Answer: maintained their motor function as well as being free of new exacerbations

Question: And the ability to write (Multiple Sclerosis; oral HEPES 5,000 mg daily, after only three days of treatment)?
Answer: regained the ability to write cursively and sign their name in a legible fashion
